The text below walks through data of EP0098141A2, “Prostaglandin D analogues, process for their preparation and compositions containing them” (ONO PHARMACEUTICAL CO., LTD., priority 1982, dated 1984).

Data set [1] concerns human myelogenous leukemic cells (HL-60). Nature of the data set: Inhibition of proliferation using human myelogenous leukemic cells (HL-60). The following applies: 96 h, HL-60 cells, stationary culture at 37°C for 4 days, surviving cell number (Trypan Blue) relative to control. It counts as cell-based. Here is the method:
The test on the inhibition of proliferation of human myelogenous leukemic cells was conducted by a well known method. The human myelogenous leukemic cells (HL-60) were added to an RPMI culture solution containing 10% bovine fetal serum, the number of cells in the culture solution was adjusted to 1x10^5 cells/ml, a solution in ethanol of the test compound was added to give a concentration of 5µg/ml or 1 µg/ml, and the mixture was subjected to stationary culture at 37°C for 4 days. As a control, a culture solution containing 0.1% of ethanol was similarly cultured. The culture solutions were stained by the Trypan Blue staining method, and the surviving cell number was measured to determine the degree of inhibition relative to the control.

Data set [2] relates to cells originated from human mouth tumor (KB-cells). Nature of the data set: Inhibition of proliferation using cells originated from human mouth tumor (KB-cells). Format: cell-based. The following applies: 96 h, stationary culture at 37°C for 4 days, surviving cell number (Trypan Blue) relative to control. Here is the method:
The test on the inhibition of proliferation of cells originated from human mouth tumor was conducted by a well known method. The cells originated from human mouth tumor (KB-cells) were added to Eagle's MEM culture solution containing 10% bovine fetal serum, the number of cells in the culture solution was adjusted to 1x10^5 cells/ml, a solution in ethanol of the test compound was added to give a concentration of […] and the mixture was subjected to stationary culture at 37°C for 4 days. As a control, a culture solution containing 0.1% of ethanol was similarly cultured. After the culture, the culture solutions were stained by the Trypan Blue staining method, and the surviving cell number was measured to determine the degree of inhibition relative to the control.

The test system of data set [3] is Ehrlich ascites tumor. In words: Prolongation of survival of mice inoculated with Ehrlich ascites tumor. It counts as in vivo. The arrangement: unit not given here. The following applies: ICR mice inoculated intraperitoneally with Ehrlich ascites tumor cells (3 x 10^6/mouse) on day 0, 20 mg/kg/day intraperitoneally from day 1 to day 5. As to the method:
The test on the prolongation of survival of mice inoculated with Ehrlich ascites tumor was conducted by a well known method. ICR mice, weighing 25 - 30 g, were inoculated with Ehrlich ascites tumor cells (3 x 10^6/mouse) intraperitoneally on day 0. A test compound was administered to mice intraperitoneally at a dose of 20 mg/kg/day from day 1 to day 5. Throughout the experiments, each group consisted of six mice (eight mice in control group). The effects of the test compounds were judged by the prolongation of survival time in days. In the Table 2, T/C was calculated below. [formula]

Data set [4] can be described thus: Acute toxicity by intraperitoneal administration in mice. The following applies: mouse, in vivo, ip. As to the method: The acute toxicity of the compounds of the present invention was more than 100 mg/kg by intraperitoneal administration in mice, so that the PGD analogues of the present invention may be considered to be sufficiently safe and suitable for medical use.

For orientation: inhibition means the share of the control response that was lost under treatment. Broadly, the LD50 is the dose expected to kill half of the subjects tested.

In the case of `CCCCC[C@H](O)/C=C/[C@H]1C(=O)C[C@H](O)[C@@H]1C/C=C\CCCC(=O)CO` [Compound 1, 2-Decarboxy-2-glycoloyl-PGD2], the inhibition at 1 µg/mL in data set [1] turned out to be 20.4%; in data set [2], 23.5%. Further, the inhibition at 5 µg/mL worked out at 96.7% in data set [1] and 100% in data set [2]. Also, in data set [3], the T/C was found to be 75.3. Besides, in data set [4], the LD50 was determined as 156 mg/kg.
In data set [1], `CCCCC[C@H](O)/C=C/[C@H]1C(=O)C=C[C@@H]1C/C=C\CCCC(=O)CO` [Compound 2, 2-Decarboxy-2-glycoloyl-9-deoxy-Δ^9-PGD2] returned an inhibition at 1 µg/mL of 100% and an inhibition at 5 µg/mL of 100%. Besides, in data set [2], the inhibition at 1 µg/mL turned out to be 90.9% and at 5 µg/mL the inhibition was 100%. The T/C in data set [3] is listed as 70.5.
With `CCCCCC=CC=C1C(=O)C=CC1CC=CCCCC(=O)CO` (stereo not shown) [Compound 3, (5Z,9Z,14EZ)-1-Hydroxymethylprosta-5,9,12,14-tetraene-1,11-dione], the figures for the inhibition at 1 µg/mL in data set [1] and in data set [2] were 100% and 10.6%, respectively. The inhibition at 5 µg/mL in data set [1] and in data set [2] was 100% each time. In addition, in data set [3], the T/C is recorded as 244.6.
In data set [1], `CCCCC[C@H](O)/C=C/[C@H]1C(=O)C=C[C@@H]1C/C=C\CCCC(=O)NS(C)(=O)=O` [Compound 4, 9-Deoxy-Δ^9-PGD2 methanesulfonylamide] displayed an inhibition at 1 µg/mL of 3.9% and an inhibition at 5 µg/mL of 1.5%. In data set [2], this compound registered an inhibition at 1 µg/mL of 12.6% and an inhibition at 5 µg/mL of 25.5%.
For the compound `CCCCCC=CC=C1C(=O)C=CC1CC=CCCCC(=O)NS(C)(=O)=O` (stereo not shown) [Compound 5, (5Z,9Z,14EZ)-N-Methanesulfonyl-11-oxoprosta-5,9,12,14-tetraen-1-amide], the inhibition at 1 µg/mL in data set [1] came out at 0%; in data set [2], 0.9%. Moreover, the figures for the inhibition at 5 µg/mL in data set [1] and in data set [2] were 78.1% and 34.6%, respectively.
For `CCCCC[C@H](O)/C=C/[C@H]1C(=O)C[C@H](O)[C@@H]1C/C=C\CCCC(=O)N(C)C` [Compound 6, (SZ,13E)-(9a,15S)-N,N-Dimethyl-9,15-dihydroxy-11-oxoprosta-5,13-dien-1-amide] the same measures were 9.9%, 19.6%, 99.1% and 100%.
For the compound `CCCCC[C@H](O)/C=C/[C@H]1C(=O)C=C[C@@H]1C/C=C\CCCC(=O)N(C)C` [Compound 7, (5Z,9Z,13E)-(15S)-N,N-Dimethyl-11-oxo-15-hydroxyprosta-5,9,13-trien-l-amide], the inhibition at 1 µg/mL in data set [1] amounted to 41.8%; in data set [2] it was 23.7%. Also, the inhibition at 5 µg/mL in data set [1] and in data set [2] was 100% each time.
`CCCCCC=CC=C1C(=O)C=CC1CC=CCCCC(=O)N(C)C` (stereo not shown) [Compound 8, (5Z,9Z,14EZ)-N,N-Dimethyl-11-oxoprosta-5,9,12,14-tetraen-1-amide]: the inhibition at 1 µg/mL in data set [1] stood at 30.9%; in data set [2] it was 9.5%. Besides, the inhibition at 5 µg/mL in data set [1] and in data set [2] was 100% in each case.
Consider `CCCCC[C@H](O)/C=C/[C@H]1C(=O)C[C@H](O)[C@@H]1C/C=C\CCCC(N)=O` [Compound 9, (5Z,13E)-(9α,15S)-9,15-Dihydroxy-11-oxoprosta-5,13-dien-1-amide], for which the inhibition at 1 µg/mL in data set [1] was determined as 21.5%; in data set [2], 2.8%. In addition, the values for the inhibition at 5 µg/mL in data set [1] and in data set [2] were 97.8% and 98.8%, respectively.
In data set [2], `CCCCC[C@H](O)/C=C/[C@H]1C(=O)C=C[C@@H]1C/C=C\CCCC(N)=O` [Compound 10, (52,9Z,13E)-(15S)-11-Oxo-15-hydroxyprosta-5,9,13-trien-1-amide] showed an inhibition at 1 µg/mL of 15.4% and an inhibition at 5 µg/mL of 100%. The same compound yielded an LD50 in data set [4] of 167 mg/kg.
Take `CCCCCC=CC=C1C(=O)C=CC1CC=CCCCC(N)=O` (stereo not shown) [Compound 11, (5Z,9Z,14EZ)-11-Oxoprosta-5,9,12,14-tetraen-1-amide]: in data set [2], the inhibition at 1 µg/mL was determined as 0.9% and the inhibition at 5 µg/mL stood at 100%. For the same compound, in data set [3], the T/C is reported as 155.6.
